# According to US8569344B2, “N-piperidinyl acetamide derivatives as calcium channel blockers” (Zalicus Pharmaceuticals Ltd., priority 2008, dated 2013):
# pIC50: −log10 of the molar value.
# How the values were obtained:
# [1] = molecular target: T1, human α1G T-type channels (Homo sapiens, UniProt O43497); test: T-type calcium channel block, whole cell patch clamp in HEK cells (α1G); assay type: cell-based; conditions: HEK cells, patch clamp, mainly non-inactivated protocol; values above 10 μM shown as 10 μM, below 0.30 μM shown as 0.30 μM; read-out: T-type Calcium Channel Block α1G IC50
# T1 construct: expressed in transfected cells; host or cells: HEK 293
# T1 sequence (O43497 whole entry): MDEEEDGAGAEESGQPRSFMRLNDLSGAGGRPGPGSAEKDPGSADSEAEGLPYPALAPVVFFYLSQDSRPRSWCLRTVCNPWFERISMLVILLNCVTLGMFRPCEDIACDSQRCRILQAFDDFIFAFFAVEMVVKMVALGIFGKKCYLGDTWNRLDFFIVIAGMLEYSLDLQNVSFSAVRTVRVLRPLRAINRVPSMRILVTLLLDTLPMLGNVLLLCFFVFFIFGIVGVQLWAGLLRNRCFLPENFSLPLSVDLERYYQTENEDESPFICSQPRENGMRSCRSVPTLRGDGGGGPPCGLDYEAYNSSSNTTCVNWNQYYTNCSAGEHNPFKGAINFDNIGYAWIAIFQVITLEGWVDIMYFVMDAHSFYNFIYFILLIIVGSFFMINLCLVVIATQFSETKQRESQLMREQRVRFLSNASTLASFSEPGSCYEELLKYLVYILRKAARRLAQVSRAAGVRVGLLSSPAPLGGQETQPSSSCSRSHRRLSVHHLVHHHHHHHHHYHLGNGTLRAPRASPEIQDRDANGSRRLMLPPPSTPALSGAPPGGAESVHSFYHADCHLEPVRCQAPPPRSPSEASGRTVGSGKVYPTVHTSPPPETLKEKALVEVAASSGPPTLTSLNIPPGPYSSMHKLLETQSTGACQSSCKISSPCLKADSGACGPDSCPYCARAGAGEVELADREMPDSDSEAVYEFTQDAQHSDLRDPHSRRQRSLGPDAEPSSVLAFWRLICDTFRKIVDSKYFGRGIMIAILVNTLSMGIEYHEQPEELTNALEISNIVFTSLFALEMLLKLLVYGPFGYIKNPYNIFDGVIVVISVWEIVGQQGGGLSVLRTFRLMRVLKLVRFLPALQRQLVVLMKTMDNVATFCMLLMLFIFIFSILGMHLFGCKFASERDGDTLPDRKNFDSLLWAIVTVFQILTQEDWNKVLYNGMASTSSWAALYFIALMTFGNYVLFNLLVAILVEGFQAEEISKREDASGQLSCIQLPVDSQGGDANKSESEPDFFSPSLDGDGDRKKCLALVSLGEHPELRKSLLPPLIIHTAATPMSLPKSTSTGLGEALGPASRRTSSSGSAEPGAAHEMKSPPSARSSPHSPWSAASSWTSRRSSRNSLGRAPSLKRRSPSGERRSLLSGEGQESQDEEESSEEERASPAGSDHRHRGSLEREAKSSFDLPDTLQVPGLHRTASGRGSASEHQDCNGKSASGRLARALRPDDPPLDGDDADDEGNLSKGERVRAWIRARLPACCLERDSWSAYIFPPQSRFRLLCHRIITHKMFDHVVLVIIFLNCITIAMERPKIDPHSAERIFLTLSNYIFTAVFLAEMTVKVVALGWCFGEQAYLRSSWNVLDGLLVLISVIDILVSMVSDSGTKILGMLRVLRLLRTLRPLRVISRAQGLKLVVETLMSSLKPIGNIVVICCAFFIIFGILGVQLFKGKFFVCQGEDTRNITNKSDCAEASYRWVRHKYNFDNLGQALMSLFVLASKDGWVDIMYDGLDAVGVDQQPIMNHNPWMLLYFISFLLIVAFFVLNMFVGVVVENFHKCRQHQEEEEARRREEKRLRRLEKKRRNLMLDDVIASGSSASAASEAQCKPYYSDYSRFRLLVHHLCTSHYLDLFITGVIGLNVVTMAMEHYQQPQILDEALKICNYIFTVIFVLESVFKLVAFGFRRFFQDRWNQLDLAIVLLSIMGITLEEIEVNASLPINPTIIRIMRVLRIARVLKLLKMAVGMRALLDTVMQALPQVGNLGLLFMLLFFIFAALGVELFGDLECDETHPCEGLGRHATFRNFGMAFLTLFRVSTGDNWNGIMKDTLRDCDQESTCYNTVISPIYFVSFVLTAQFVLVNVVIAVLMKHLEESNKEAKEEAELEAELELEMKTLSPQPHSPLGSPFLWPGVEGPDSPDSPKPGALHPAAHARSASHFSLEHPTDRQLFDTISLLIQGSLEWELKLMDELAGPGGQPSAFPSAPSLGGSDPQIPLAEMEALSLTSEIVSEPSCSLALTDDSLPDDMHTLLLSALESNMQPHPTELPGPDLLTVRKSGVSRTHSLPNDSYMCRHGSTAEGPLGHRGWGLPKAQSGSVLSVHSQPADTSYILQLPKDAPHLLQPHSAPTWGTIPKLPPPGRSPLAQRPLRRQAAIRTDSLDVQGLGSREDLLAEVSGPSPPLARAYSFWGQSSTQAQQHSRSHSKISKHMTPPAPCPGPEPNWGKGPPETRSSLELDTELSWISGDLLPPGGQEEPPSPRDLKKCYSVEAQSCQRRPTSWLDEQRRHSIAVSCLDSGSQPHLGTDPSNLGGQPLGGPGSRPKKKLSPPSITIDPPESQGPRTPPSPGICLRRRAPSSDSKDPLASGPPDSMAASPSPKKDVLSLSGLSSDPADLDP
# [2] = molecular target: T2, human α1H T-type channels (Homo sapiens, UniProt O95180); test: T-type calcium channel block, whole cell patch clamp in HEK cells (α1H); assay type: cell-based; conditions: HEK cells, patch clamp, mainly non-inactivated protocol; values above 10 μM shown as 10 μM; read-out: T-type Calcium Channel Block α1H IC50
# T2 construct: expressed in transfected cells; host or cells: HEK 293
# T2 sequence (O95180 whole entry): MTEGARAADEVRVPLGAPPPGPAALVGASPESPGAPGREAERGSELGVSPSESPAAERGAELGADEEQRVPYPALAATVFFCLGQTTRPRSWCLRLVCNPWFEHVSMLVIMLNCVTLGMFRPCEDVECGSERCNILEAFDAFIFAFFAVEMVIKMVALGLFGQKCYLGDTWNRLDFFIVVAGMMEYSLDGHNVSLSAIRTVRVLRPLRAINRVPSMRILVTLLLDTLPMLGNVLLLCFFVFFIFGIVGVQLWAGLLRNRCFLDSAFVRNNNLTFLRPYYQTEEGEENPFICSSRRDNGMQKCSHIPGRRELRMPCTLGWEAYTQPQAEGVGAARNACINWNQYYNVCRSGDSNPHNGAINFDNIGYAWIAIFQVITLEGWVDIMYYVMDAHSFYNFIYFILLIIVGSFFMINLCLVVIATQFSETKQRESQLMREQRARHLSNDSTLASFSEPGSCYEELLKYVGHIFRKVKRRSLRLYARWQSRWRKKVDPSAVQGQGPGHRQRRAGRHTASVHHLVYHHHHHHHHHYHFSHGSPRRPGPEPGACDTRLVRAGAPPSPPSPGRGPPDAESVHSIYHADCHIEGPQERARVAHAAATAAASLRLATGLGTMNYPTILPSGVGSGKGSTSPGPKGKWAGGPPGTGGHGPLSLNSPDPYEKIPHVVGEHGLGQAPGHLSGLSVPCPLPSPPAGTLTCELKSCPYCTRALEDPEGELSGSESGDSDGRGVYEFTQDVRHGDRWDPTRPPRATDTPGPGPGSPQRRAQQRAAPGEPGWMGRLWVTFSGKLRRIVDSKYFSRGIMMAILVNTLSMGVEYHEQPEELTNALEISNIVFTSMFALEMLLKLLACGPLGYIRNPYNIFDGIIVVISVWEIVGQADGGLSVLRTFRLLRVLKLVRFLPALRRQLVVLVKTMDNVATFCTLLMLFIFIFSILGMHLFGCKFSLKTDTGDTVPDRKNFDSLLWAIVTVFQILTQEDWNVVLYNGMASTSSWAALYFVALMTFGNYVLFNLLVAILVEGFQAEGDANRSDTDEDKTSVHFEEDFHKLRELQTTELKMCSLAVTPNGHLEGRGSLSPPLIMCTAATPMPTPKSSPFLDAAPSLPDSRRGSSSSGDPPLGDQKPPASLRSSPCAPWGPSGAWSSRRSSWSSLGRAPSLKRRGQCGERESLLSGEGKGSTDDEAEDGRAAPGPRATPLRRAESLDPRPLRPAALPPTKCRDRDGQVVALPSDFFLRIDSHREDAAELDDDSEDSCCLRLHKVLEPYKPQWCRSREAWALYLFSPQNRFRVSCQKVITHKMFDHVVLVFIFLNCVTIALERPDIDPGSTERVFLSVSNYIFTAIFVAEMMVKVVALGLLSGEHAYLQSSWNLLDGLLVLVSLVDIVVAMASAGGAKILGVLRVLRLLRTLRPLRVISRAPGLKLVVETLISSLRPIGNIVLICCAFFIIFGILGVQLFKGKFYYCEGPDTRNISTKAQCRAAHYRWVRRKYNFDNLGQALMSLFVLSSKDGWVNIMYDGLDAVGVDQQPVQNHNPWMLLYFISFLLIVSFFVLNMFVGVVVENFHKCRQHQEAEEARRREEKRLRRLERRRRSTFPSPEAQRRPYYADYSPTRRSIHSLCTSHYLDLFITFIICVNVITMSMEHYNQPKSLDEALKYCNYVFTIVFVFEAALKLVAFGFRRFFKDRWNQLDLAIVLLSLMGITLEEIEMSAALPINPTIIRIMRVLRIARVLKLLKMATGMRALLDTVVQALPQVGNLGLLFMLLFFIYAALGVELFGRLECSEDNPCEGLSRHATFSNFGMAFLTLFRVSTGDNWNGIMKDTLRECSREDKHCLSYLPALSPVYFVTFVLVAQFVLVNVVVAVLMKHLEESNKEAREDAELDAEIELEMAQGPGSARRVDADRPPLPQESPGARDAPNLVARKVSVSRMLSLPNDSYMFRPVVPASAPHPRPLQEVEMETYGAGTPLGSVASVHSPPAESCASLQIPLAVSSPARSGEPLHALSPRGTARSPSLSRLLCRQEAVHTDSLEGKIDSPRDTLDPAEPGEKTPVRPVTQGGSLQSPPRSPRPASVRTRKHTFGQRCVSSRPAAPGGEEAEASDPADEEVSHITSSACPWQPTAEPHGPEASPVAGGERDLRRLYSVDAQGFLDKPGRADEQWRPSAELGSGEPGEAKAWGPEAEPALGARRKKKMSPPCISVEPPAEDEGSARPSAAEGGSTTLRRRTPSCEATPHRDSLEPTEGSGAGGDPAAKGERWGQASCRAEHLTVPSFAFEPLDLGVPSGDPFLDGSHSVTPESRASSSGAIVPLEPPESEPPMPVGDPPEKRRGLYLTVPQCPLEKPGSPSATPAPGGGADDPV
Structure (SMILES),pIC50 [1],pIC50 [2]
"CC(C)(C)OC(=O)NCCN1CCC(CNC(=O)c2cccc(OC(F)(F)F)c2)CC1 [Compound 44, tert-butyl 2-(4-((3-(trifluoromethoxy)benzamido)methyl)piperidin-1-yl)ethylcarbamate]",6.21,6.49
"CC(C)(C)NC(=O)CN1CCC(CNC(=O)c2cc(C(F)(F)F)ccn2)CC1 [Compound 372, N-((1-(2-(tert-butylamino)-2-oxoethyl)piperidin-4-yl)methyl)-4-(trifluoromethyl)picolinamide]",< 5.00,< 5.00
"CCOC(=O)NCCN1CCC(CNC(=O)c2cc(C(F)(F)F)cc(C(F)(F)F)c2)CC1 [Compound 36, ethyl 2-(4-((3,5-bis(trifluoromethyl)benzamido)methyl)piperidin-1-yl)ethylcarbamate]",5.37,5.77
"O=C(NCC1CCN(CC(=O)N2CCC[C@H]2C(F)(F)F)CC1)c1cccc(C(F)(F)F)c1 [Compound 467, (S)-N-((1-(2-oxo-2-(2-(trifluoromethyl)pyrrolidin-1-yl)ethyl)piperidin-4-yl)methyl)-3-(trifluoromethyl)benzamide]",> 6.52,6.77
"CC(C)(F)CNC(=O)CN1CCC(CNC(=O)c2cc(C(F)(F)F)cc(C(F)(F)F)c2)CC1 [Compound 555, N-((1-(2-(2-fluoro-2-methylpropyl-amino)-2-oxoethyl)piperidin-4-yl)methyl)-3,5-bis(trifluoromethyl) benzamide]",6.28,6.05
"CC(C)COC(=O)NCCN1CCC(CNC(=O)c2cc(C(F)(F)F)cc(C(F)(F)F)c2)CC1 [Compound 37, isobutyl 2-(4-((3,5-bis(trifluoromethyl)benzamido)methyl)piperidin-1-yl)ethylcarbamate]",> 6.52,6.77
"O=C(NCC1CCN(CCNS(=O)(=O)C(F)(F)F)CC1)c1cccc(Br)c1 [Compound 330, 3-bromo-N-((1-(2-(trifluoromethylsulfonamido)ethyl)piperidin-4-yl)methyl)benzamide]",< 5.00,< 5.00
"CC(C)COC(=O)NC1(CN2CCC(CNC(=O)c3cc(C(F)(F)F)cc(C(F)(F)F)c3)CC2)CCCC1 [Compound 18, isobutyl 1-((4-((3,5-bis(trifluoromethyl)benzamido)methyl)piperidin-1-yl)methyl)cyclopentyl-carbamate]",> 6.52,7.10
"CC(C)S(=O)(=O)NCCN1CCC(CNC(=O)c2cccc(Cl)c2)CC1 [Compound 236, 3-chloro-N-((1-(2-(1-methylethylsulfonamido)ethyl)piperidin-4-yl)methyl)benzamide]",6.07,5.76
"CN(C(=O)CN1CCC(CNC(=O)c2cc(F)cc(Cl)c2)CC1)C(C)(C)C(F)(F)F [Compound 579, 3-chloro-5-fluoro-N-((1-(2-(methyl (1,1,1-trifluoro-2-methylpropan-2-yl)amino)-2-oxoethyl)piperidin-4-yl)methyl)benzamide]",> 6.52,7.30
"COc1cc(OC)cc(C(=O)NCC2CCN(CCNC(=O)C(C)(C)C(F)(F)F)CC2)c1 [Compound 491, 3,5-dimethoxy-N-((1-(2-(3,3,3-trifluoro-2,2-dimethylpropanamido)ethyl)piperidin-4-yl)methyl)benzamide]",> 6.52,6.72
"O=C(CN1CCC(CNC(=O)c2cc(F)cc(Cl)c2)CC1)NC1(C2CCOCC2)CC1 [Compound 563, 3-chloro-5-fluoro-N-((1-(2-oxo-2-(1-(tetrahydro-2H-pyran-4-yl)cyclopropylamino)ethyl)piperidin-4-yl)methyl)benzamide]",> 6.52,6.51
"CS(=O)(=O)c1cc(C(=O)NCC2CCN(CCNC(=O)C3(C(F)(F)F)CCC3)CC2)cc(C(F)(F)F)c1 [Compound 586, 3-(methylsulfonyl)-5-(trifluoro-methyl)-N-((1-(2-(1-(trifluoromethyl)cyclobutane-carboxamido)ethyl)piperidin-4-yl)methyl)benzamide]",< 5.00,5.32
"CCC1CCCCN1CC(=O)N1CCC(CNC(=O)c2cc(F)cc(C(F)(F)F)c2)CC1 (stereo not shown) [Compound 269, N-((1-(2-(2-ethylpiperidin-1-yl)acetyl)piperidin-4-yl)methyl)-3-fluoro-5-(trifluoromethyl)benzamide]",5.85,5.50
"CC(C(=O)N1CCC[C@@H]1C(F)(F)F)N1CCC(CNC(=O)c2cc(F)cc(Cl)c2)CC1 (stereo partly drawn) [Compound 558, 3-chloro-5-fluoro-N-((1-(1-oxo-1-((R)-2-(trifluoromethyl)pyrrolidin-1-yl)propan-2-yl)piperidin-4-yl)methyl) benzamide]",> 6.52,6.34
"CC(C)S(=O)(=O)NCCN1CCC(CNC(=O)c2cc(Br)cc(Br)c2)CC1 [Compound 319, 3,5-dibromo-N-((1-(2-(1-methylethylsulfonamido)ethyl)piperidin-4-yl)methyl)benzamide]",> 6.52,6.82
"C[C@@H]1CCCCN1CC(=O)N1CCC(CNC(=O)c2cc(C(F)(F)F)cc(C(F)(F)F)c2)CC1 [Compound 252, (R)-N-((1-(2-(2-methylpiperidin-1-yl)acetyl)piperidin-4-yl)methyl)-3,5-bis(trifluoromethyl)benzamide]",5.61,5.63
"CC(C)(C)N/C(CN1CCC(CNC(=O)c2cc(C(F)(F)F)cc(C(F)(F)F)c2)CC1)=N\C#N [Compound 503, (Z)-N-((1-(2-(tert-buylamino)-2-(cyanoimino)ethyl)piperidin-4-yl)methyl)-3,5-bis(trifluoromethyl) benzamide]",5.81,5.14
"O=C(CCC(F)(F)F)NCCN1CCC(CNC(=O)c2cccc(C(F)(F)F)c2)CC1 [Compound 313, N-((1-(2-(4,4,4-trifluorobutanamido)ethyl)piperidin-4-yl)methyl)-3-(trifluoromethyl)benzamide]",5.20,6.21
"CN(CCN1CCC(CNC(=O)c2cc(F)cc(C(F)(F)F)c2)CC1)C(=O)C1(C(F)(F)F)CCCC1 [Compound 522, 3-fluoro-N-((1-(2-(N-methyl-1-(trifluoromethyl)cyclopentanecarbox-amido)ethyl)piperidin-4-yl)methyl)-5-(trifluoromethyl)benzamide]",> 6.52,6.85
"O=C(NCC1CCN(CCNS(=O)(=O)C2CC2)CC1)c1cc(C(F)(F)F)cc(C(F)(F)F)c1 [Compound 19, N-((1-(2-(cyclopropanesulfonamido)ethyl)piperidin-4-yl)methyl)-3,5-bis(trifluoromethyl)benzamide]",5.76,6.13
"CC1(C(=O)NCCN2CCC(CNC(=O)c3cc(C(F)(F)F)cc(C(F)(F)F)c3)CC2)CC1 [Compound 337, N-((1-(2-(1-methylcyclopropanecarboxamido)ethyl)piperidin-4-yl)methyl)-3,5-bis(trifluoromethyl)benzamide]",6.57,6.43

# Further lines, results first:
pIC50 [1],pIC50 [2],Structure (SMILES)
6.23,6.07,"O=C(NC1CCCCC1)OCCN1CCC(CNC(=O)c2cc(F)cc(C(F)(F)F)c2)CC1 [Compound 530, 2-(4-((3-fluoro-5-(trifluoromethyl)benzamido)methyl)piperidin-1-yl)ethyl cyclohexylcarbamate]"
6.51,5.96,"O=C(NCC1CCN(C(=O)CNC2CCCCC2)CC1)c1cc(F)cc(C(F)(F)F)c1 [Compound 276, N-((1-(2-(cyclohexylamino)acetyl)piperidin-4-yl)methyl)-3-fluoro-5-(trifluoromethyl)benzamide]"
5.88,5.93,"CC(C)(C)OC(=O)NCCN1CCC(CNC(=O)c2cccc(C(F)(F)F)c2)CC1 [Compound 39, tert-butyl 2-(4-((3-(trifluoromethyl)benzamido)methyl)piperidin-1-yl)ethylcarbamate]"
5.04,< 5.00,"CC(C(=O)N1CCSC1)N1CCC(CNC(=O)c2cc(F)cc(Cl)c2)CC1 (stereo not shown) [Compound 559, 3-chloro-5-fluoro-N-((1-(1-oxo-1-(thiazolidin-3-yl)propan-2-yl)piperidin-4-yl)methyl)benzamide]"
> 6.52,5.76,"CC(C)(C)NCC(=O)N1CCC(CNC(=O)c2cc(C(F)(F)F)cc(C(F)(F)F)c2)CC1 [Compound 239, N-((1-(2-(tert-butylamino)acetyl)piperidin-4-yl)methyl)-3,5-bis(trifluoromethyl)benzamide]"
6.24,5.63,"O=C(NCC1CCN(C(=O)CN2CCCC(C(F)(F)F)C2)CC1)c1cc(C(F)(F)F)cc(C(F)(F)F)c1 (stereo not shown) [Compound 255, 3,5-bis(trifluoromethyl)-N-((1-(2-(3-(trifluoromethyl)piperidin-1-yl)acetyl)piperidin-4-yl)methyl)benzamide]"
5.27,5.83,"Cc1cc(F)cc(C(=O)NCC2CCN(CC(=O)N3CCC[C@@H]3C(F)(F)F)CC2)c1 [Compound 506, (R)-3-fluoro-5-methyl-N-((1-(2-oxo-2-(2-(trifluoromethyl)pyrrolidin-1-yl)ethyl)piperidin-4-yl)methyl) benzamide]"
< 5.00,< 5.00,"CC(C)(C)c1ccc(C(=O)NCC2CCN(CCNS(=O)(=O)C3CC3)CC2)cc1 [Compound 238, 4-tert-butyl-N-((1-(2-(cyclopropanesulfonamido)ethyl)piperidin-4-yl)methyl)benzamide]"
> 6.52,6.62,"COCC(COC)NC(=O)CN1CCC(CNC(=O)c2cc(C(F)(F)F)cc(C(F)(F)F)c2)CC1 [Compound 347, N-((1-(2-(1,3-dimethoxypropan-2-ylamino)-2-oxoethyl)piperidin-4-yl)methyl)-3,5-bis(trifluoromethyl) benzamide]"
5.85,6.26,"Cc1cc(F)cc(C(=O)NCC2CCN(CC(=O)N(C)C(C)(C)C)CC2)c1 [Compound 540, N-((1-(2-(tert-butyl(methyl)amino)-2-oxoethyl)piperidin-4-yl)methyl)-3-fluoro-5-methylbenzamide]"
